The source of these data is article PMC11603219, “Novel Dibenzoazepine-Substituted Triazole Hybrids as Cholinesterase and Carbonic Anhydrase Inhibitors and Anticancer Agents: Synthesis, Characterization, Biological Evaluation, and In Silico Studies” (ACS Omega, 2024).

The structures appear in SMILES notation. A value given as a limit tells only on which side of the number the result lay.

One experiment addresses hCA II (Homo sapiens, UniProt P00918). Put plainly: biochemical. Type of experiment: biochemical.
The subject of experiment [1] is BT-549 cells. In words: MTT cytotoxicity assay, BT-549. The note with it: 96 h treatment. Type of experiment: cell-based, human. (In general: Tetrazolium assays rely on reduction of a dye to a coloured formazan, in cell work by metabolically active cells.)
A further experiment addresses hCA I (Homo sapiens, UniProt P00915). In words: biochemical. It is filed as biochemical.
The subject of a further experiment is MDA-MB-231 cells. In words: MTT cytotoxicity assay, MDA-MB-231. Type of experiment: cell-based. The note with it: Homo sapiens, 72 h treatment.
For a further experiment, the target named is T1, BChE from equine serum (Equus caballus, UniProt P81908).
T1 construct: from tissue; host or cells: equine serum
In words: biochemical. It is filed as biochemical. As for the experimental part: All of the measurements were repeated thrice. AChE and BChE activity were assessed using a modified version of the Ellman method.[48] The measurement of AChE/BChE activity was conducted with acetylthiocholine iodide/butyrylthiocholine iodide as substrates along with 5,5-dithiobis (2-nitrobenzoic) acid.

Another experiment concerns the target AChE (Homo sapiens, UniProt P22303). Put plainly: biochemical. It is filed as biochemical.
Experiment [2] deals with BT-549 cells. In words: Colony formation inhibition assay. It is filed as cell-based, human. The note with it: for colony formation inhibition: 10 μM, 20 μM, and 30 μM, 7–10 days.
[3] abbreviates: ratio of Ki versus tacrine (TAC/THA).

AChE, sequence (P22303 32-614): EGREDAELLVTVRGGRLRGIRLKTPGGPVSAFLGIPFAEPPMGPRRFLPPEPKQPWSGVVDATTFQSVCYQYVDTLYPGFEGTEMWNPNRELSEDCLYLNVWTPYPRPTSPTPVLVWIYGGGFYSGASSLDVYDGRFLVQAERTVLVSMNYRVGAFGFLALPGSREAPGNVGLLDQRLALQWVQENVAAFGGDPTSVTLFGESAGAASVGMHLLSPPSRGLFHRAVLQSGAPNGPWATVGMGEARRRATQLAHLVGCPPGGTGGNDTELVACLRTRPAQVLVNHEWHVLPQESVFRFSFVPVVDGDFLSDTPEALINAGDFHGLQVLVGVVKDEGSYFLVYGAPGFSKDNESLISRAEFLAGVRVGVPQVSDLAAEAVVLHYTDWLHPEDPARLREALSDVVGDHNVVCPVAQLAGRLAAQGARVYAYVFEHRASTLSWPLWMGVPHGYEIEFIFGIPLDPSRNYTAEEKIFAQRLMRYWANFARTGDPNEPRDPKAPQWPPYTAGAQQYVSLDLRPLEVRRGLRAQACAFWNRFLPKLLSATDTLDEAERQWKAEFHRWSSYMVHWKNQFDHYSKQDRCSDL
hCA I, sequence (P00915 whole entry): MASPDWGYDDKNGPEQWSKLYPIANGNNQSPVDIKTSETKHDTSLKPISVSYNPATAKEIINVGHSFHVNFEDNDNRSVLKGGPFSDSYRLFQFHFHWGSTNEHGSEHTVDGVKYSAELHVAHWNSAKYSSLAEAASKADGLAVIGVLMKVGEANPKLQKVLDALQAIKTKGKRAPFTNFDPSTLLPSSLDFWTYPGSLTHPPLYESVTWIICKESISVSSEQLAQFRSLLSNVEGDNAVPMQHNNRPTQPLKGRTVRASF
T1 sequence (P81908 whole entry): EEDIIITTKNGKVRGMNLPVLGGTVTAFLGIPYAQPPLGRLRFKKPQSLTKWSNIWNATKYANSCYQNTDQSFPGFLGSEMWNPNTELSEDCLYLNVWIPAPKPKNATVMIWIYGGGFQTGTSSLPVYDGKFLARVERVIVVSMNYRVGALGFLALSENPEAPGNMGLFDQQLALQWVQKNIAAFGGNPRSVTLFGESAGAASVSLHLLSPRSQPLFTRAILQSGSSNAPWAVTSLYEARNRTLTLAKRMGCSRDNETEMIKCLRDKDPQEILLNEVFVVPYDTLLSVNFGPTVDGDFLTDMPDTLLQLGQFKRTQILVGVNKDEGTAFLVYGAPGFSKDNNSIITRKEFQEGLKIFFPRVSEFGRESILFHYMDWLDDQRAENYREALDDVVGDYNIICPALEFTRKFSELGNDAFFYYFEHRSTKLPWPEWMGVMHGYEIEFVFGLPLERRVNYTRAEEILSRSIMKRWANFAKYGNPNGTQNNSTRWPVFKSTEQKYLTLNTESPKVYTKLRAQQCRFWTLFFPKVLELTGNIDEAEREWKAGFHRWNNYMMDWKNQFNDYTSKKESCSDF

As to `Oc1ccccc1-n1cc(CN2c3ccccc3C=Cc3ccccc32)nn1` [Compound 20, 2-(4-((5H-Dibenzo[b,f]azepin-5-yl)methyl)-1H-1,2,3-triazol-1-yl)phenol], the Ki (in general, a measure of affinity in units of concentration, obtained from inhibition or displacement) on hCA II was found to be 89.4 ± 4.92 nM; at hCA I it was 80.4 ± 15.6 nM; on BChE from equine serum it was 16.2 ± 2.43 nM; at AChE it was 22.8 ± 4.78 nM. The IC50 (as a rule, the point on the concentration scale where inhibition reaches its midpoint) in the experiment on BT-549 cells [1] (Homo sapiens, BT-549, 96 h) was 36.2 ± 3.77 µM; with MDA-MB-231 cells, over 100 µM.
For the molecule `C1=Cc2ccccc2N(Cc2cn(Cc3ccccc3)nn2)c2ccccc21` [Compound 12, 5-((1-Benzyl-1H-1,2,3-triazol-4-yl)methyl)-5H-dibenzo[b,f]azepine], the inhibition constant Ki on hCA II came to 40.5 ± 5.85 nM; at hCA I it was 48.8 ± 4.68 nM; at BChE from equine serum it was 48.8 ± 8.62 nM; on AChE, 28.9 ± 3.52 nM. Also, the IC50 with BT-549 cells [1] (Homo sapiens, BT-549, 96 h) was 33.5 ± 3.03 µM; with MDA-MB-231 cells, 12.5 ± 1.92 µM.
As to `COc1ccc(-n2cc(CN3c4ccccc4C=Cc4ccccc43)nn2)cc1` [Compound 15, 5-((1-(4-Methoxyphenyl)-1H-1,2,3-triazol-4-yl)methyl)-5H-dibenzo[b,f]azepine], the Ki on hCA II was found to be 39.1 ± 2.17 nM; on hCA I, 54.7 ± 9.63 nM; on BChE from equine serum, 4.11 ± 0.46 nM; on AChE it was 24.1 ± 0.45 nM. Further, the IC50 in the experiment on BT-549 cells [1] (Homo sapiens, BT-549, 96 h) is 26.8 ± 4.6 µM; in the experiment with MDA-MB-231 cells, over 150 µM. For the same molecule, the “concentration at which BT-549 colonies were inhibited/suppressed” value in the experiment with BT-549 cells [2] was determined as 20 µM. In the experiment on BT-549 cells [2], the colony formation inhibition result is reported as “suppressed the colonies”.
With `O=[N+]([O-])c1ccc(-n2cc(CN3c4ccccc4C=Cc4ccccc43)nn2)cc1` [Compound 18, 5-((1-(4-Nitrophenyl)-1H-1,2,3-triazol-4-yl)methyl)-5H-dibenzo[b,f]azepine], the Ki on hCA II worked out at 69.7 ± 5.93 nM; at hCA I, 118 ± 21 nM; at BChE from equine serum, 39.1 ± 8.82 nM; at AChE, 44.7 ± 9.61 nM. The half-inhibitory concentration (IC50) with BT-549 cells [1] (Homo sapiens, BT-549, 96 h) is over 40 µM; in the experiment with MDA-MB-231 cells it was over 150 µM.
Turning to `C1=Cc2ccccc2N(Cc2cn(-c3cccc4ccccc34)nn2)c2ccccc21` [Compound 13, 5-((1-(Naphthalen-1-yl)–1H-1,2,3-triazol-4-yl)methyl)-5H-dibenzo[b,f]azepine], the inhibition constant (Ki) worked out at 28.8 ± 4.64 nM on hCA II, 62.1 ± 8.53 nM on hCA I, 1.15 ± 0.15 nM on BChE from equine serum and 14.1 ± 3.81 nM on AChE. The half-maximal inhibitory concentration (IC50) in the experiment on BT-549 cells [1] (Homo sapiens, BT-549, 96 h) is over 40 µM; with MDA-MB-231 cells, over 125 µM. Moreover, the “times more inhibition effect than compound 12, BChE” value at BChE from equine serum (ratio of Ki versus compound 12) is on record as “approximately 42.48 times”. Also, the “fold more active than tacrine for BChE” value on BChE from equine serum (setting [3]) is 49.70 fold. Further, the “times more inhibition effect, BChE, compound 18 comparison” value on BChE from equine serum (ratio of Ki, compound 13 and compound 18) is reported as 34.04 times. For the same molecule, the “fold more active than tacrine for AChE” value at AChE (setting [3]) was 5.49 fold.
Regarding `O=c1ccc2ccc(OCCn3cc(CN4c5ccccc5C=Cc5ccccc54)nn3)cc2o1` [Compound 16, 7-(2-(4-((5H-Dibenzo[b,f]azepin-5-yl)methyl)-1H-1,2,3-triazol-1-yl)ethoxy)-2H-chromen-2-one], the Ki at hCA II worked out at 54.6 ± 1.99 nM; at hCA I, 122 ± 20.2 nM; at BChE from equine serum it was 11.2 ± 1.55 nM; at AChE it was 17.5 ± 2.19 nM. For the same molecule, the concentration for half-maximal inhibition (IC50) is 17.7 ± 2.54 µM in the experiment with BT-549 cells [1]; at most 20 µM in the experiment on BT-549 cells [1] (Homo sapiens, BT-549, 96 h); over 150 µM with MDA-MB-231 cells. Also, the colony formation inhibition result with BT-549 cells [2] is on record as “suppressed the colonies”.
`COc1cc(-n2cc(CN3c4ccccc4C=Cc4ccccc43)nn2)cc(OC)c1OC` [Compound 19, 5-((1-(3,4,5-Trimethoxyphenyl)-1H-1,2,3-triazol-4-yl)methyl)-5H-dibenzo[b,f]azepine]: the Ki was found to be 61.4 ± 9.11 nM on hCA II, 94 ± 15.5 nM at hCA I, 2.22 ± 0.17 nM at BChE from equine serum and 34.5 ± 8.54 nM at AChE. In addition, the IC50 is 18.1 ± 2.14 µM with BT-549 cells [1]; at most 20 µM in the experiment with BT-549 cells [1] (Homo sapiens, BT-549, 96 h); over 150 µM in the experiment on MDA-MB-231 cells. Also, the “concentration at which BT-549 colonies were inhibited/suppressed” value in the experiment on BT-549 cells [2] amounted to 20 µM. In addition, in the experiment on BT-549 cells [2], the colony formation inhibition result is reported as “suppressed the colonies”.
Consider `C1=Cc2ccccc2N(Cc2cn(-c3cccnc3)nn2)c2ccccc21` [Compound 14, 5-((1-(Pyridin-3-yl)-1H-1,2,3-triazol-4-yl)methyl)-5H-dibenzo[b,f]azepine], for which the Ki at hCA II is 17.7 ± 1.54 nM; at hCA I, 29.9 ± 5.93 nM; at BChE from equine serum, 7.65 ± 1.49 nM; at AChE it was 21.2 ± 5.87 nM. Also, the “fold more active than acetazolamide for hCA II” value at hCA II (ratio of Ki versus AZA) is 5.79 fold. In addition, the IC50 with BT-549 cells [1] is 16.6 ± 0.97 µM; in the experiment on BT-549 cells [1] (Homo sapiens, BT-549, 96 h), at most 20 µM; with MDA-MB-231 cells, over 75 µM. Also, the “fold more active than acetazolamide for hCA I” value at hCA I (ratio of Ki versus AZA) is 4.16 fold. The “concentration at which BT-549 colonies were inhibited/suppressed” value in the experiment with BT-549 cells [2] was determined as 10 µM. Besides, the colony formation inhibition result in the experiment with BT-549 cells [2] is reported as “suppressed the colonies”.
`NS(=O)(=O)c1ccc(-n2cc(CN3c4ccccc4C=Cc4ccccc43)nn2)cc1` [Compound 17, 4-(4-((5H-Dibenzo[b,f]azepin-5-yl)methyl)-1H-1,2,3-triazol-1-yl)benzenesulfonamide]: the Ki on hCA II turned out to be 56.7 ± 11.5 nM; on hCA I, 40.5 ± 11.1 nM; on BChE from equine serum, 15.3 ± 1.12 nM; on AChE it was 19 ± 5.44 nM. The IC50 in the experiment on BT-549 cells [1] is 17.4 ± 3.09 µM; in the experiment on BT-549 cells [1] (Homo sapiens, BT-549, 96 h), at most 20 µM; in the experiment on MDA-MB-231 cells, 36.5 ± 1.62 µM. The “concentration at which BT-549 colonies were inhibited/suppressed” value with BT-549 cells [2] turned out to be 20 µM. In addition, in the experiment with BT-549 cells [2], the colony formation inhibition entry is given as “suppressed the colonies”.
